Test results as given in the NIST ThermoML archive (doi:10.1021/acs.jced.7b00750).
Numbers after ± are expanded uncertainties.

Assay: xn = mol fraction of the nth substance listed
Conditions: 100 kPa, Liquid, Vibrating tube method

CNC(N)=O [methylurea] + O
Conditions	mass density [kg/m3]
274.15 K, x1 = 0.00244	1001.77 ± 0.13
274.15 K, x1 = 0.00291	1002.12 ± 0.13
274.15 K, x1 = 0.00483	1003.58 ± 0.13
274.15 K, x1 = 0.00553	1004.11 ± 0.13
274.15 K, x1 = 0.00799	1005.96 ± 0.13
274.15 K, x1 = 0.00834	1006.21 ± 0.13
274.15 K, x1 = 0.01081	1008.05 ± 0.13
274.15 K, x1 = 0.01421	1010.56 ± 0.13
275.15 K, x1 = 0.00244	1001.8 ± 0.13
275.15 K, x1 = 0.00291	1002.15 ± 0.13
275.15 K, x1 = 0.00483	1003.6 ± 0.13
275.15 K, x1 = 0.00553	1004.13 ± 0.13
275.15 K, x1 = 0.00799	1005.98 ± 0.13
275.15 K, x1 = 0.00834	1006.23 ± 0.13
275.15 K, x1 = 0.01081	1008.07 ± 0.13
275.15 K, x1 = 0.01421	1010.58 ± 0.13
276.15 K, x1 = 0.00244	1001.82 ± 0.13
276.15 K, x1 = 0.00291	1002.17 ± 0.13
276.15 K, x1 = 0.00483	1003.62 ± 0.13
276.15 K, x1 = 0.00553	1004.14 ± 0.15
276.15 K, x1 = 0.00799	1005.98 ± 0.13
276.15 K, x1 = 0.00834	1006.24 ± 0.15
276.15 K, x1 = 0.01081	1008.06 ± 0.13
276.15 K, x1 = 0.01421	1010.58 ± 0.13
277.15 K, x1 = 0.00244	1001.82 ± 0.13
277.15 K, x1 = 0.00291	1002.17 ± 0.13
277.15 K, x1 = 0.00483	1003.61 ± 0.13
277.15 K, x1 = 0.00553	1004.13 ± 0.13
277.15 K, x1 = 0.00799	1005.97 ± 0.13
277.15 K, x1 = 0.00834	1006.23 ± 0.13
277.15 K, x1 = 0.01081	1008.05 ± 0.13
277.15 K, x1 = 0.01421	1010.54 ± 0.13
278.15 K, x1 = 0.00244	1001.8 ± 0.13
278.15 K, x1 = 0.00291	1002.15 ± 0.13
278.15 K, x1 = 0.00483	1003.58 ± 0.13
278.15 K, x1 = 0.00553	1004.1 ± 0.13
278.15 K, x1 = 0.00799	1005.92 ± 0.13
278.15 K, x1 = 0.00834	1006.18 ± 0.13
278.15 K, x1 = 0.01081	1007.99 ± 0.13
278.15 K, x1 = 0.01421	1010.45 ± 0.13
278.15 K, x1 = 0.01662	1012.18 ± 0.13
278.15 K, x1 = 0.019	1013.89 ± 0.13
278.15 K, x1 = 0.02321	1016.84 ± 0.13
278.15 K, x1 = 0.03185	1022.7 ± 0.13
278.15 K, x1 = 0.04218	1029.47 ± 0.13
278.15 K, x1 = 0.05184	1035.47 ± 0.13
278.15 K, x1 = 0.06068	1040.78 ± 0.14
278.15 K, x1 = 0.07071	1046.57 ± 0.14
279.15 K, x1 = 0.00244	1001.76 ± 0.13
279.15 K, x1 = 0.00291	1002.11 ± 0.13
279.15 K, x1 = 0.00483	1003.53 ± 0.13
279.15 K, x1 = 0.00553	1004.05 ± 0.13
279.15 K, x1 = 0.00799	1005.86 ± 0.13
279.15 K, x1 = 0.00834	1006.11 ± 0.13
279.15 K, x1 = 0.01081	1007.92 ± 0.13
279.15 K, x1 = 0.01421	1010.37 ± 0.13
280.15 K, x1 = 0.00244	1001.71 ± 0.13
280.15 K, x1 = 0.00291	1002.05 ± 0.13
280.15 K, x1 = 0.00483	1003.47 ± 0.13
280.15 K, x1 = 0.00553	1003.98 ± 0.13
280.15 K, x1 = 0.00799	1005.78 ± 0.13
280.15 K, x1 = 0.00834	1006.03 ± 0.13
280.15 K, x1 = 0.01081	1007.83 ± 0.13
280.15 K, x1 = 0.01421	1010.26 ± 0.13
281.15 K, x1 = 0.00244	1001.65 ± 0.13
281.15 K, x1 = 0.00291	1001.99 ± 0.13
281.15 K, x1 = 0.00483	1003.39 ± 0.13
281.15 K, x1 = 0.00553	1003.9 ± 0.13
281.15 K, x1 = 0.00799	1005.7 ± 0.13
281.15 K, x1 = 0.00834	1005.95 ± 0.13
281.15 K, x1 = 0.01081	1007.72 ± 0.13
281.15 K, x1 = 0.01421	1010.15 ± 0.13
282.15 K, x1 = 0.00244	1001.57 ± 0.13
282.15 K, x1 = 0.00291	1001.91 ± 0.13
282.15 K, x1 = 0.00483	1003.31 ± 0.13
282.15 K, x1 = 0.00553	1003.81 ± 0.13
282.15 K, x1 = 0.00799	1005.59 ± 0.13
282.15 K, x1 = 0.00834	1005.84 ± 0.13
282.15 K, x1 = 0.01081	1007.61 ± 0.13
282.15 K, x1 = 0.01421	1010.02 ± 0.13
283.15 K, x1 = 0.00244	1001.47 ± 0.13
283.15 K, x1 = 0.00291	1001.81 ± 0.13
283.15 K, x1 = 0.00483	1003.2 ± 0.13
283.15 K, x1 = 0.00553	1003.71 ± 0.13
283.15 K, x1 = 0.00799	1005.48 ± 0.13
283.15 K, x1 = 0.00834	1005.72 ± 0.13
283.15 K, x1 = 0.01081	1007.48 ± 0.13
283.15 K, x1 = 0.01421	1009.88 ± 0.13
288.15 K, x1 = 0.00244	1000.82 ± 0.15
288.15 K, x1 = 0.00291	1001.15 ± 0.11
288.15 K, x1 = 0.00483	1002.51 ± 0.13
288.15 K, x1 = 0.00553	1003 ± 0.13
288.15 K, x1 = 0.00799	1004.72 ± 0.16
288.15 K, x1 = 0.00834	1004.96 ± 0.11
288.15 K, x1 = 0.01081	1006.67 ± 0.13
288.15 K, x1 = 0.01421	1009.02 ± 0.13
288.15 K, x1 = 0.01662	1010.63 ± 0.13
288.15 K, x1 = 0.019	1012.22 ± 0.13
288.15 K, x1 = 0.02321	1015 ± 0.13
288.15 K, x1 = 0.03185	1020.53 ± 0.13
288.15 K, x1 = 0.04218	1026.9 ± 0.13
288.15 K, x1 = 0.05184	1032.59 ± 0.13
288.15 K, x1 = 0.06068	1037.58 ± 0.13
288.15 K, x1 = 0.07071	1043.01 ± 0.14
298.15 K, x1 = 0.00244	998.69 ± 0.17
298.15 K, x1 = 0.00291	999 ± 0.11
298.15 K, x1 = 0.00483	1000.3 ± 0.12
298.15 K, x1 = 0.00553	1000.76 ± 0.13
298.15 K, x1 = 0.00799	1002.41 ± 0.18
298.15 K, x1 = 0.00834	1002.63 ± 0.11
298.15 K, x1 = 0.01081	1004.26 ± 0.13
298.15 K, x1 = 0.01421	1006.48 ± 0.13
298.15 K, x1 = 0.01662	1008.05 ± 0.13
298.15 K, x1 = 0.019	1009.57 ± 0.13
298.15 K, x1 = 0.02321	1012.2 ± 0.13
298.15 K, x1 = 0.03185	1017.45 ± 0.13
298.15 K, x1 = 0.04218	1023.52 ± 0.13
298.15 K, x1 = 0.05184	1028.96 ± 0.13
298.15 K, x1 = 0.06068	1033.74 ± 0.13
298.15 K, x1 = 0.07071	1038.96 ± 0.14
308.15 K, x1 = 0.00244	995.62 ± 0.18
308.15 K, x1 = 0.00291	995.92 ± 0.11
308.15 K, x1 = 0.00483	997.16 ± 0.12
308.15 K, x1 = 0.00553	997.61 ± 0.13
308.15 K, x1 = 0.00799	999.19 ± 0.2
308.15 K, x1 = 0.00834	999.41 ± 0.12
308.15 K, x1 = 0.01081	1000.97 ± 0.13
308.15 K, x1 = 0.01421	1003.1 ± 0.13
308.15 K, x1 = 0.01662	1004.61 ± 0.13
308.15 K, x1 = 0.019	1006.07 ± 0.13
308.15 K, x1 = 0.02321	1008.61 ± 0.13
308.15 K, x1 = 0.03185	1013.65 ± 0.13
308.15 K, x1 = 0.04218	1019.45 ± 0.13
308.15 K, x1 = 0.05184	1024.66 ± 0.13
308.15 K, x1 = 0.06068	1029.26 ± 0.13
308.15 K, x1 = 0.07071	1034.27 ± 0.13
323.15 K, x1 = 0.00244	989.55 ± 0.17
323.15 K, x1 = 0.00291	989.84 ± 0.11
323.15 K, x1 = 0.00483	991.02 ± 0.12
323.15 K, x1 = 0.00553	991.45 ± 0.13
323.15 K, x1 = 0.00799	992.95 ± 0.19
323.15 K, x1 = 0.00834	993.16 ± 0.12
323.15 K, x1 = 0.01081	994.63 ± 0.13
323.15 K, x1 = 0.01421	996.66 ± 0.13
323.15 K, x1 = 0.01662	998.09 ± 0.13
323.15 K, x1 = 0.019	999.47 ± 0.13
323.15 K, x1 = 0.02321	1001.87 ± 0.13
323.15 K, x1 = 0.03185	1006.67 ± 0.13
323.15 K, x1 = 0.04218	1012.19 ± 0.13
323.15 K, x1 = 0.05184	1017.13 ± 0.13
323.15 K, x1 = 0.06068	1021.48 ± 0.13
323.15 K, x1 = 0.07071	1026.24 ± 0.13
333.15 K, x1 = 0.00244	984.67 ± 0.13
333.15 K, x1 = 0.00291	984.95 ± 0.13
333.15 K, x1 = 0.00483	986.09 ± 0.13
333.15 K, x1 = 0.00553	986.51 ± 0.13
333.15 K, x1 = 0.00799	987.96 ± 0.13
333.15 K, x1 = 0.00834	988.16 ± 0.13
333.15 K, x1 = 0.01081	989.6 ± 0.13
333.15 K, x1 = 0.01421	991.56 ± 0.13
333.15 K, x1 = 0.01662	992.96 ± 0.13
333.15 K, x1 = 0.019	994.26 ± 0.13
333.15 K, x1 = 0.02321	996.6 ± 0.13
333.15 K, x1 = 0.03185	1001.3 ± 0.13
333.15 K, x1 = 0.04218	1006.7 ± 0.13
333.15 K, x1 = 0.05184	1011.49 ± 0.13
333.15 K, x1 = 0.06068	1015.72 ± 0.13
333.15 K, x1 = 0.07071	1020.32 ± 0.13
